Where two headings read alike, the source gives them in different places.
Biological target: T1, KRas G12D mutant (Homo sapiens, UniProt P01116, G12D)
T1 construct: fused on or other part: His tag, used for capture on nickel-coated plates
Experiment: Ras GTP binding domain inhibition assay (Cy3-GTP/Cy5-GTP competition)
Conditions: for IC50: cell-free, 100 nM Cy3-GTP or Cy5-GTP
Experimental: The following method was developed as specific assay for the following proteins: KRas wild type, KRas Q61H mutant, KRas G12C mutant, KRas G12D mutant, HRas wild type, Rac-1, and Rho-A.
• 25 mM Tris-HCl, pH 7.4 • 27 mM KCl • 137 mM NaCl • 1 mM MgCl2 • 1 mM DTT
• 50 mM Tris-HCl, pH 7.0 • 1 mM MgCl2 • 1 mM DTT
The small GTPases proteins: KRas wild type. KRas Q61H mutant, KRas G12C mutant, KRas G12D mutants, HRas wild type, Rac-1, and Rho-A were expressed as His-tagged proteins. In addition, the Guanosine nucleotide Exchange Factor (GEF) Sos protein (residues 556-1049) was expressed as a His-tagged protein. In cells, the guanine nucleotide exchange factor Sos protein promotes activation of Ras proteins by stimulating an exchange of GDP for GTP. The inclusion of Sos to the Ras GTP binding domain inhibition assay may be considered as an alternative representation of physiological cellular conditions for evaluating the inhibitory activity of some of the tested small molecules.
For the assay, all purified small GTPases proteins were diluted in Buffer-I or Buffer-II to a final concentration of 10-30 μg/mL. 200 μL of each diluted protein was added to a nickel-coated 96-well plate and incubated overnight at 4° C. Then the protein solution was discarded and 200 μL of Buffer-I or Buffer-II was added to each well in the presence of 1% DMSO. Compounds to be tested were added to the protein-coated wells at final concentration of 20 μM, and incubated for 3 hours at room temperature with and without […] of Sos added to the final hour of the incubation. When performing IC50 measurements a serial dilution of all tested concentrations was added. Then Cy3-GTP or Cy5-GTP was added to each well to a final concentration of 100 nM. The labeled GTP was incubated for 45 minutes at room temperature. Following GTP incubation, wells were washed 3× in Buffer-I or Buffer-II and 200 μL of Buffer-I or Buffer-II was added to each well. Following washes, the amount of bound labeled-GTP was measured using a SpectraMax M3 (Molecular Devices).

[1] = with SOS, read-out: KRas G12D mutant + SOS: % inh.
[2] = without SOS, read-out: KRas G12D mutant: % inh.

In the case of `COc1cccc(-c2sc3nc(-c4nccn4C)nc(N[C@@H]4CC[C@H](OC)C4)c3c2C)c1F` [drawing 1029], the inhibition at 20 µM [1] is reported as 51 to 75% and the inhibition at 20 µM [2] is reported as 51 to 75%.
`COc1cccc(-c2sc3nc(-c4nc(C)cn4C)nc(N[C@@H]4CC[C@H](OC)C4)c3c2C)c1F` [drawing 1031] was tested, and the inhibition at 20 µM [1] was 26 to 50% and the inhibition at 20 µM [2] was 1 to 25%.
Work on `CO[C@H]1CC[C@@H](Nc2nc(-c3nc(C)cn3C)nc3sc(-c4cccc5[nH]ncc45)c(C)c23)C1` [drawing 1032] yielded an inhibition at 20 µM [1] of 26 to 50% and an inhibition at 20 µM [2] of 26 to 50%.
`CO[C@H]1CC[C@@H](Nc2nc(-c3nccn3C)nc3sc(-c4ccn(C(C)C)n4)c(C4=CC=CCC=C4)c23)C1` [drawing 1063] gave an IC50 of 1 to 4.99 µM.
`Cc1c(-c2ccn(C)n2)sc2nc(-c3nccn3C)nc(NCCCS(C)(=O)=O)c12` [drawing 1064] gave an IC50 of 5 to 10 µM.
Compound `Cc1c(-c2ccn(C)n2)sc2nc(-c3nccn3C)nc(NCCCC(=O)N(C)C)c12` [drawing 1065] has an IC50 of 5 to 10 µM.
Compound `Cc1c(-c2ccn(C)n2)sc2nc(-c3nccn3C)nc(NCCOC(=O)N(C)C)c12` [drawing 1066] has an IC50 of 5 to 10 µM.
Compound `CO[C@H]1CC[C@@H](Nc2nc(-c3nccn3C)nc3sc(-c4ccn(C(C)C)n4)c(C)c23)C1` [drawing 1067] has an IC50 of 5 to 10 µM.
Compound `CO[C@H]1C[C@@H](Nc2nc(-c3nccn3C)nc3sc(C(=O)NC(C)C)c(-c4ccccc4)c23)C1` [drawing 1068] has an IC50 of 5 to 10 µM.
Compound `COCCNC(=O)c1sc2nc(-c3nccn3C)nc(N[C@H]3C[C@@H](OC)C3)c2c1-c1ccccc1` [drawing 1069] has an IC50 of 5 to 10 µM.
With `CO[C@H]1C[C@@H](Nc2nc(-c3nccn3C)nc3sc(C(=O)N4CCOCC4)c(-c4ccccc4)c23)C1` [drawing 1070] the IC50 was 5 to 10 µM.
`CO[C@H]1CC[C@@H](Nc2nc(-c3nccn3C)nc3sc(C(=O)NC(C)C)c(-c4ccccc4)c23)C1` [drawing 1072] was tested, and the IC50 was 5 to 10 µM.
In the case of `COCCNC(=O)c1sc2nc(-c3nccn3C)nc(N[C@@H]3CC[C@H](OC)C3)c2c1-c1ccccc1` [drawing 1073], the IC50 is reported as 5 to 10 µM.
Compound `CO[C@H]1CC[C@@H](Nc2nc(-c3nccn3C)nc3sc(C(=O)N4CCCC4)c(-c4ccccc4)c23)C1` [drawing 1074] has an IC50 of 5 to 10 µM.
With `CO[C@H]1CC[C@@H](Nc2nc(-c3nccn3C)nc3sc(C(=O)N4CCOCC4)c(-c4ccccc4)c23)C1` [drawing 1075] the IC50 was 5 to 10 µM.

Reference: patent US20250296938A1, “Compounds that Interact with the Ras Superfamily for the Treatment of Cancers, Inflammatory Diseases, Rasopathies, and Fibrotic Disease” (SHY Therapeutics, LLC, priority 2018, published 2025)
